Active and inactive are the calls of the source.

Drawing on ChEMBL document CHEMBL1201862, “PubChem BioAssay data set” (2004), this text covers IC50, EC50 and AC50 for 4 compounds.

One assay addresses Procathepsin L (Homo sapiens, UniProt P07711).
The target in another assay is T1, Aspartyl aminopeptidase (Plasmodium falciparum 3D7, UniProt Q8I2J3).
T1 sequence (Q8I2J3 whole entry): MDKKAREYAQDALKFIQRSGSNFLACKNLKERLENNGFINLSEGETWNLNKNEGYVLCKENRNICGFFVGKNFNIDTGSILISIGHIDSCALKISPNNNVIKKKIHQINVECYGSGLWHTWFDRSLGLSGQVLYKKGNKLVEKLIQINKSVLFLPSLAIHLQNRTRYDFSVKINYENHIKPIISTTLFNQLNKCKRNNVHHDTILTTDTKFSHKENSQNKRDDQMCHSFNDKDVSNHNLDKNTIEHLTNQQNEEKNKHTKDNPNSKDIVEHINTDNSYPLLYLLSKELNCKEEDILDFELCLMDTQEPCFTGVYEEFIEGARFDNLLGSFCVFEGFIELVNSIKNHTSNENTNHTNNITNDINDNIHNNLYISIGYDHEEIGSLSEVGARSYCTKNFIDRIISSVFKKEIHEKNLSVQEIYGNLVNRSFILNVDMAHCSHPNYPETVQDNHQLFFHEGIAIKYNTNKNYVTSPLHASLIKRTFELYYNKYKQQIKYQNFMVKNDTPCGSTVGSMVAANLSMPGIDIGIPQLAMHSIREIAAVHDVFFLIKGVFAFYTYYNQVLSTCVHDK

Another assay concerns the target Oxytocin receptor (Homo sapiens, UniProt P30559). Kind of assay: Fluorescence-based cell-based high throughput dose response assay for potentiators of Oxytocin Receptor (OXTR). [Related pubchem assays: 434985 (Confirmation screen (OXTR potentiators in triplicate)), 2481 (Summary (OXTR potentiators)), 2445 (Primary screen (OXTR potentiators in singlicate))]. The format is functional.

Assay [1] concerns the target Latent membrane protein 1 (Human herpesvirus 4 (strain B95-8), UniProt P03230). Kind of assay: TES1-eGFP NF-kB reporter inhibition versus Tet-On dsRED, dose response, selectivity assay for LMP1 NF-kB inhibitor project, imaging, HEK293T, dual-color eGFP/dsRED, cherry-picks (AID 588398). It counts as functional, cell-based.
The target of the next assay is Large T antigen (Simian virus 40, UniProt P03070). It counts as functional, Betapolyomavirus macacae.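 Also: Confirmatory-stage PubChem screen for compounds that inhibit SV40 T antigen.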
Sequence of Large T antigen (P03070 whole entry): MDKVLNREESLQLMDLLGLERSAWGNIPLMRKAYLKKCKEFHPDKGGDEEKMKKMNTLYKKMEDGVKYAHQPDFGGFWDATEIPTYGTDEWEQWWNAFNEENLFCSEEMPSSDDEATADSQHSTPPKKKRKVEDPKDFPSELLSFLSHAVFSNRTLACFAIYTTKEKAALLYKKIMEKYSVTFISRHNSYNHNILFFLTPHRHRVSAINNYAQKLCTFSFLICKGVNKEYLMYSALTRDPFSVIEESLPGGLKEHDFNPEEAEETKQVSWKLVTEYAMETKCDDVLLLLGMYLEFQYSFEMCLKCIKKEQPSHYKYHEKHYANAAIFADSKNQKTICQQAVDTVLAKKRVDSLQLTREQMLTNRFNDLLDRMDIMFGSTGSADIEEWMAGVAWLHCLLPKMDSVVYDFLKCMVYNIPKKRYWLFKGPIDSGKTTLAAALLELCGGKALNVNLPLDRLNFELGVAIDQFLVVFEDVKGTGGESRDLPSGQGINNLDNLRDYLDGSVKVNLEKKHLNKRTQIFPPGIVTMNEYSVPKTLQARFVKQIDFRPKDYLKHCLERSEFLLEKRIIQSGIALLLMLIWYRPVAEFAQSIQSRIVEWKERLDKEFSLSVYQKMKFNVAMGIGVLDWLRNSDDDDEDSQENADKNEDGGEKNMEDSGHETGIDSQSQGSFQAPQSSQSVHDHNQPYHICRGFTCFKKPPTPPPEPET
Assay [2] has as its target Beta-2 adrenergic receptor (Homo sapiens, UniProt P07550). As to the kind of experiment: beta2AR agonists driving receptor internalization, dose response, cell-based, FAP fluorogen, flow cytometry, cherry pick 1 (AID 588763). The format is functional. (Flow cytometry measures light scatter and fluorescence of single cells or particles in a stream.)
A short description of assay [3]: inhibitors of clade B AD8 Env fusion, dose response, cell-based, cherry-pick (AID 652062).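 Also: luciferase signal from cell-cell fusion driven by HIV-1 clade B AD8 Env; potency is for inhibitors of fusion seen as a drop in luminescence.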 The format is functional.
The next assay concerns A-375. Kind of assay: A375 melanoma cell viability reduction, dose response, counter-screen for MITF modulator project, cherry-pick samples, set 2 (AID 540335). The format is functional, cell-based. Particulars: Homo sapiens. (In general: The purpose of a counterscreen is to sort out artefacts and off-target activity.)
Assay [4] is described as follows: A2780 ovarian cancer cell cytotoxicity, dose response, cytotoxicity control, plate reader, dry powder samples (AID 743046). The format is functional, cell-based.
Assay [5] in a line: PAX5 activity inhibitors, dose response, selectivity assay for PAX8 inhibitor project, cell-based, plate reader, dry powder samples (AID 743047).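 Also: HEK293 cells carrying a Pax5 driven CD19 promoter luciferase reporter; potency of inhibitors that lower reporter luminescence.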 The format is functional.
Assay [6] deals with T2, Microphthalmia-associated transcription factor (Homo sapiens, UniProt O75030).
T2 sequence (O75030 whole entry): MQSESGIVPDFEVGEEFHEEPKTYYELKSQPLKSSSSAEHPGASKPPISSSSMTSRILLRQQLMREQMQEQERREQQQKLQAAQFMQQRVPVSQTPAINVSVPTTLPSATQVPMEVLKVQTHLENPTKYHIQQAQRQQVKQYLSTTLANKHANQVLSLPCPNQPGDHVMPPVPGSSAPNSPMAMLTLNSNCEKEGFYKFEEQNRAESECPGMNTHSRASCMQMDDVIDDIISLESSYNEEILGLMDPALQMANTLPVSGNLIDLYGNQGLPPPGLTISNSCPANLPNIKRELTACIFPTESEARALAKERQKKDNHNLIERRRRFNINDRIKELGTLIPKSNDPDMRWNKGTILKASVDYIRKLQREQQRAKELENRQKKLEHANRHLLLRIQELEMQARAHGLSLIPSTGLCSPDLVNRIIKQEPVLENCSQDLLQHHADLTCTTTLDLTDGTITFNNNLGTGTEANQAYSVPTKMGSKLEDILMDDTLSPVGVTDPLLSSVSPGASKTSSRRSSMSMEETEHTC
Kind of assay: TRPM1 promoter luciferase signal decrease, dose response, MITF inhibitor project, cell-based, SK-MEL-5, cherry-picked, set 3 (AID 493073).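 Also: SK-MEL-5 melanoma cells with luciferase driven by the MITF target TRPM1 promoter.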 The format is functional.

Assay [7] is described as follows: cytotoxicity in COV434 cells, dose response, cytotoxicity control for PAX8 inhibitor project, cell-based, plate reader, dry powder, SA7 (AID 743145). It counts as functional.
Assay [8] has as its system HEK293. Kind of assay: NOD2 signaling inhibitors in MDP-stimulated cells, cell-based, uHTS, luminescence (AID 2001). The format is functional. The settings on record: Homo sapiens.
Assay [9] in a line: cytotoxicity dependent on PAX8, dose response, cell-based, plate reader, dry powder (AID 743049). It counts as functional.
Assay [10] deals with HEK293. As to the kind of experiment: cells. The format is functional, cell-based. Particulars: Homo sapiens.
Assay [11] can be described thus: ZM109 Env clade C HIV-1 fusion inhibitors, dose response, HeLa effector, CEM target cells, luciferase, cherry-pick (AID 652058). It counts as functional, cell-based.
Another assay deals with Paired box protein Pax-8 (Homo sapiens, UniProt Q06710). Kind of assay: inhibitors of PAX8-driven TPO luciferase reporter, dose response, RMG-I cells, cherry-pick (AID 687027).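 Also: luciferase reporter driven by Pax8 target thyroperoxidase promoter measured by SteadyGlo luminescence.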 The format is functional, cell-based. Background: In a reporter assay the amount or activity of a reporter protein is the signal.
Sequence of Paired box protein Pax-8 (Q06710 whole entry): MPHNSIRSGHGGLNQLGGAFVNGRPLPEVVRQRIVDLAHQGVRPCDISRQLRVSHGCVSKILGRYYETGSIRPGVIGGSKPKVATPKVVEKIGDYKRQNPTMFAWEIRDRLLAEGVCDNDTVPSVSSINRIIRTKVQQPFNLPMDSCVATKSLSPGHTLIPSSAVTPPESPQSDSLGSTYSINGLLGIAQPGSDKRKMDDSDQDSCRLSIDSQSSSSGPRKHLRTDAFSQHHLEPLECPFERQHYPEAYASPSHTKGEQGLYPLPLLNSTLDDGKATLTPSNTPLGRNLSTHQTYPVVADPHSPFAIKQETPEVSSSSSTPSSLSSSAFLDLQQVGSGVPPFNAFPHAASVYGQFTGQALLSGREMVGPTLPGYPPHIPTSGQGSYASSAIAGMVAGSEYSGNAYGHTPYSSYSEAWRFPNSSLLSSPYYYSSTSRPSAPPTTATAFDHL
Assay [12] can be described thus: NIH:OVCAR-3 ovarian cancer cell cytotoxicity, dose response, PAX8 inhibitor project, plate reader, dry powder samples (AID 743044). It counts as functional, cell-based.
The test system of assay [13] is HEK293. As to the kind of experiment: cells. It counts as functional, cell-based. Particulars: Homo sapiens. This is another data set of the same source.
The nature of assay [14]: CEM21 lymphoblast cell cytotoxicity, dose response, cytotoxicity control for viral fusion inhibitor project, CellTiter-Glo luminescence, cherry-picked (AID 652042).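 Also: potency for signal decrease meaning cytotoxicity.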 It counts as functional, cell-based.
The test system of assay [15] is HEK293. As to the kind of experiment: NOD1 signaling inhibitors, primary screen, cell-based, luminescence, uHTS (AID 1578). The format is functional. Particulars: Homo sapiens.
The nature of assay [16]: PAX2 cell-based inhibition, dose response, selectivity assay for PAX8 inhibitor project, plate reader, dry powder samples (AID 743048).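 Also: HEK293 cells carrying a WT1 promoter luciferase reporter driven by expressed Pax2; potency is for inhibition of Pax2 driven reporter signal.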 It counts as functional.
The target of assay [17] is Nucleotide-binding oligomerization domain-containing protein 2 (Homo sapiens, UniProt Q9HC29). As to the kind of experiment: NOD2 signaling inhibitors, cell-based, luminescence, uHTS, HEK293 (AID 1566). The format is functional.
Sequence of Nucleotide-binding oligomerization domain-containing protein 2 (Q9HC29 whole entry, the tested form may be a part): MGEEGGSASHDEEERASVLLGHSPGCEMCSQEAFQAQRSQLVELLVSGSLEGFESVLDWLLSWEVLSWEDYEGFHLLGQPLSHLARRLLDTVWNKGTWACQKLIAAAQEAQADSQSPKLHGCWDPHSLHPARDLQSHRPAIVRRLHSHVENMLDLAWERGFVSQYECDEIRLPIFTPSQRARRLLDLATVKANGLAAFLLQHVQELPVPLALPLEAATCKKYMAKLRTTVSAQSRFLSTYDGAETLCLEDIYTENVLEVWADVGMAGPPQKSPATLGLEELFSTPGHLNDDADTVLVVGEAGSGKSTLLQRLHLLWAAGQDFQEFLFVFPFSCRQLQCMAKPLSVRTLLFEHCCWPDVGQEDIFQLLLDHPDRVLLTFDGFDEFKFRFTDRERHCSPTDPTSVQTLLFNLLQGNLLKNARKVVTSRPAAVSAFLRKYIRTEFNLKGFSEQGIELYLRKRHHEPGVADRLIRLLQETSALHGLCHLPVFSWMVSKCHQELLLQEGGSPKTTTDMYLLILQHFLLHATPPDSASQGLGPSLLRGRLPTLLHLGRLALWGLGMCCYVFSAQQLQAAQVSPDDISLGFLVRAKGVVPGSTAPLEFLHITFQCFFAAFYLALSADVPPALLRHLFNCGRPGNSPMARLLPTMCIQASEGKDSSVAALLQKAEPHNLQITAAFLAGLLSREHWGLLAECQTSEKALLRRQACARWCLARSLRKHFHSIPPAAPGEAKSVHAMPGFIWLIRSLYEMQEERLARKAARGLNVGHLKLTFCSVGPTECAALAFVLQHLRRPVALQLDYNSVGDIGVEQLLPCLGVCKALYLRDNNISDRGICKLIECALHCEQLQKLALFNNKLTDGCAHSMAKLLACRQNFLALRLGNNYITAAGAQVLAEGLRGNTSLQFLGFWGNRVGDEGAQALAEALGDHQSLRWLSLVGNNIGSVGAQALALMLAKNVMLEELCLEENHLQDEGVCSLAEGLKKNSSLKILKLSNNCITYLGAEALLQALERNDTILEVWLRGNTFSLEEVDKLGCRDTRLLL
Assay [18] in a line: inhibitors of HIV Env-driven cell fusion, dose response, cherry-pick (AID 652057). The format is functional, cell-based.
For assay [19], the system named is HEK293. As to the kind of experiment: cells. It counts as functional, cell-based. The settings on record: Homo sapiens. The source holds these as a separate data set.
Assay [20] is described as follows: cytotoxicity in OV-90 ovarian cancer cells, dose response, PAX8 inhibitor project, cell-based, plate reader, dry powder, SA8 (AID 743149). The format is functional.
A further assay deals with INS1. As to the kind of experiment: beta cell apoptosis inhibitors, cytokine rescue, dose response, luminescence, retest (AID 449756).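 Also: cell death triggered by IL-1 beta plus TNF-alpha plus IFN-gamma mixture; protective hits raise ATP signal compared with cytokine alone wells.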 It counts as functional, cell-based. The settings on record: Rattus norvegicus.
Assay [21] in a line: off-target signal loss in HeLa-CEM21 co-culture – HeLa F-luc CTL cells, cherry-picked, counter-screen for HIV-1 Env fusion inhibitor project, dose response (AID 652040).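 Also: potency for signal decrease marking cytotoxic or nonspecific inhibition.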 The format is functional, cell-based.
For assay [22], the target named is T3, Short transient receptor potential channel 4 (Mus musculus, UniProt Q9QUQ5).
T3 sequence (Q9QUQ5 whole entry): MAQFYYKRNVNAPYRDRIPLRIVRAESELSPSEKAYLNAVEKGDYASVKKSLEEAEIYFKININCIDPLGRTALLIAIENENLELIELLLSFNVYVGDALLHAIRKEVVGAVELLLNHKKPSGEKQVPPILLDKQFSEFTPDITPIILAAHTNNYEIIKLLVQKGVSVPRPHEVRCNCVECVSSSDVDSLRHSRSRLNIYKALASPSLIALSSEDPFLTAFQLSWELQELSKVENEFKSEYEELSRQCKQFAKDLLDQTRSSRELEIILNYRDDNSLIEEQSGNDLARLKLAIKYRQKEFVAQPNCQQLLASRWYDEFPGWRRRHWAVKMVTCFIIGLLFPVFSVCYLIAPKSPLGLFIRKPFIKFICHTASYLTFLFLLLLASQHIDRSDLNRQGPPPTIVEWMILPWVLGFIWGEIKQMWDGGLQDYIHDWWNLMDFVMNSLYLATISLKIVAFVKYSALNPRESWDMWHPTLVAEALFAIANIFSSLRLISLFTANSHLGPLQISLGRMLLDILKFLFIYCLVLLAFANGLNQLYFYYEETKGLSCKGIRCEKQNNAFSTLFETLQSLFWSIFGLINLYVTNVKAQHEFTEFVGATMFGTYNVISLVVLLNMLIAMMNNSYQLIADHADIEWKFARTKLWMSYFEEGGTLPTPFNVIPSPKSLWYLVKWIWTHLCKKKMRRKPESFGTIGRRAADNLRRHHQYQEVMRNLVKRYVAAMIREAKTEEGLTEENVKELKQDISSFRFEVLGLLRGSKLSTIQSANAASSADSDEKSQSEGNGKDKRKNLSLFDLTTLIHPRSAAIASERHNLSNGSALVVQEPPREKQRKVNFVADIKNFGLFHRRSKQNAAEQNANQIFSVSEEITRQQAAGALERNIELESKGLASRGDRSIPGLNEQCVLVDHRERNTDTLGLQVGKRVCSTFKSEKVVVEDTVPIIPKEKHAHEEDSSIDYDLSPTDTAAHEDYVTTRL
As to the kind of experiment: mouse TRPC4 channel activators, dose response, cell-based, HEK293 TRPC4/mu-opioid, Fluo-4 calcium (AID 434937). It counts as functional.

Another assay deals with Mu-type opioid receptor (Homo sapiens, UniProt P35372). As to the kind of experiment: Counterscreen for agonists of heterodimerization of the mu 1 (OPRM1) and delta 1 (OPRD1) opioid receptors: Luminescence-based cell-based high throughput dose response assay to identify agonists of OPRM1 homodimerization. It counts as functional.
Sequence of Mu-type opioid receptor (P35372 whole entry): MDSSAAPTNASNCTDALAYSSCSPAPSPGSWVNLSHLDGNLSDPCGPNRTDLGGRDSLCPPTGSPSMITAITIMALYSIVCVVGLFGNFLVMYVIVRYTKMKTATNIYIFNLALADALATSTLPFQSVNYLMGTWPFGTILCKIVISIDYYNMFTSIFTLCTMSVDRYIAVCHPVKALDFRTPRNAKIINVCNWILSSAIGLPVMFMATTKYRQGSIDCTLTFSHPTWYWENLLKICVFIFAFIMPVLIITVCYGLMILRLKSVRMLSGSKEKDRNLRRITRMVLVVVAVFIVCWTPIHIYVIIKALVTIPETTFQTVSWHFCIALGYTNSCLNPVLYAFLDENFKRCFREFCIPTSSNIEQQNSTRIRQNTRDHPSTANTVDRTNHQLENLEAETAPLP
For assay [23], the target named is Delta-type opioid receptor (Homo sapiens, UniProt P41143). Kind of assay: Counterscreen for agonists of heterodimerization of the mu 1 (OPRM1) and delta 1 (OPRD1) opioid receptors: Luminescence-based cell-based high throughput dose response assay to identify agonists of OPRD1 homodimerization. [Related pubchem assays (depositor defined):AID504326, AID504355, AID504692, AID504904, AID504905]. It counts as functional.
Sequence of Delta-type opioid receptor (P41143 whole entry): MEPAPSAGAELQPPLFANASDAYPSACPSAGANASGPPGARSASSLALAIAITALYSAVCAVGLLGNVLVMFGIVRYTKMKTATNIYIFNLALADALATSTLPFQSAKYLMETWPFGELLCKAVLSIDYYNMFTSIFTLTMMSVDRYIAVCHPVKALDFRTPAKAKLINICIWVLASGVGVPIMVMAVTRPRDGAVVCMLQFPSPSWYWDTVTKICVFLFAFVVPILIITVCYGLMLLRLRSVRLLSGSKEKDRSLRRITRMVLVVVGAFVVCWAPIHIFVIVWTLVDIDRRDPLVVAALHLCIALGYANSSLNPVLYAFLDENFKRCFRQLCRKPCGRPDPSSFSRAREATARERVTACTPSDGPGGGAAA

In assay [24] the target is 5-hydroxytryptamine receptor 5A (Homo sapiens, UniProt P47898). As to the kind of experiment: Counterscreen for agonists of OPRM1-OPRD1 heterodimerization: luminescence-based cell-based high throughput dose response assay to identify agonists of 5-hydroxytryptamine (serotonin) 5A receptor (HTR5A). [Related pubchem assays (depositor defined):AID504326, AID504355, AID504692, AID504904, AID504905]. The format is functional.
Sequence of 5-hydroxytryptamine receptor 5A (P47898 whole entry): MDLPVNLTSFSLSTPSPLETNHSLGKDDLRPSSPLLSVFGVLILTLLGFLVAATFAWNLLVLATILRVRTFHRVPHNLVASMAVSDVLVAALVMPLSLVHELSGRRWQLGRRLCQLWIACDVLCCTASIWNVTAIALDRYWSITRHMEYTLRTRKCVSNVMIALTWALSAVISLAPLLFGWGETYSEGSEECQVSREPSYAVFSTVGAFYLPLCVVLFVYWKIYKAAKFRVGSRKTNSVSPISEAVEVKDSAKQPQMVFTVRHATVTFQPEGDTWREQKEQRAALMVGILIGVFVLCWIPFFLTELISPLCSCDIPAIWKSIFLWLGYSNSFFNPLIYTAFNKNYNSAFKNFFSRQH

Sequence of Procathepsin L (P07711 whole entry): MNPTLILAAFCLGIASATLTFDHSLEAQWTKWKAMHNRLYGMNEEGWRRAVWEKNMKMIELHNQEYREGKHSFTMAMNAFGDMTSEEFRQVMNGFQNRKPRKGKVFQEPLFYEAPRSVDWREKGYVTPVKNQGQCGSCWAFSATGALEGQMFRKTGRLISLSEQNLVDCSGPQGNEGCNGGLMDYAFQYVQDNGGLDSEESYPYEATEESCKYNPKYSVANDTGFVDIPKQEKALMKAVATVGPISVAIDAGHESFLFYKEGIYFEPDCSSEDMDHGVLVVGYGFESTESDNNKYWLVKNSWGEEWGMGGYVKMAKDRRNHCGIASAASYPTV
Sequence of Beta-2 adrenergic receptor (P07550 whole entry, the tested form may be a part): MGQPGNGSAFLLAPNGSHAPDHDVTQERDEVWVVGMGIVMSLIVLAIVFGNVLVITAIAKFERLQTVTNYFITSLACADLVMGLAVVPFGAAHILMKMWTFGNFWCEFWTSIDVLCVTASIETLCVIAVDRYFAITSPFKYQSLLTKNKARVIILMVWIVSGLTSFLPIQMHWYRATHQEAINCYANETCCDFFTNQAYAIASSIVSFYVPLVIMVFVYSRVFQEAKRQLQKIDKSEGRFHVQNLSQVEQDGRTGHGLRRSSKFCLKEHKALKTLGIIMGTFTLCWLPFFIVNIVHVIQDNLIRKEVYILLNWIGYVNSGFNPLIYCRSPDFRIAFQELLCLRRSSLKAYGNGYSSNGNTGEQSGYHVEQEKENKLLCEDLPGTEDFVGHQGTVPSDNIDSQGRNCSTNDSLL
Sequence of Latent membrane protein 1 (P03230 whole entry): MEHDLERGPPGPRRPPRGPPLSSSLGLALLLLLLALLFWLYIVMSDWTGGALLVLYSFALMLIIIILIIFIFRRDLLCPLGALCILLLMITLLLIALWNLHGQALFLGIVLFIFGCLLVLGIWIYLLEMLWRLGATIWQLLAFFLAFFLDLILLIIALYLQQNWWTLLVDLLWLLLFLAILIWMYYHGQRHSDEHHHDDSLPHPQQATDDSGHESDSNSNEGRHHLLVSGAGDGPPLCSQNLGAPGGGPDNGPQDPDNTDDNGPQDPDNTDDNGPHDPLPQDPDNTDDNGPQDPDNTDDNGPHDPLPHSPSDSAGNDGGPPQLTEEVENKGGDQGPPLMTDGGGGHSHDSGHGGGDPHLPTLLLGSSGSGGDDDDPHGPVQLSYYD
Sequence of Oxytocin receptor (P30559 whole entry): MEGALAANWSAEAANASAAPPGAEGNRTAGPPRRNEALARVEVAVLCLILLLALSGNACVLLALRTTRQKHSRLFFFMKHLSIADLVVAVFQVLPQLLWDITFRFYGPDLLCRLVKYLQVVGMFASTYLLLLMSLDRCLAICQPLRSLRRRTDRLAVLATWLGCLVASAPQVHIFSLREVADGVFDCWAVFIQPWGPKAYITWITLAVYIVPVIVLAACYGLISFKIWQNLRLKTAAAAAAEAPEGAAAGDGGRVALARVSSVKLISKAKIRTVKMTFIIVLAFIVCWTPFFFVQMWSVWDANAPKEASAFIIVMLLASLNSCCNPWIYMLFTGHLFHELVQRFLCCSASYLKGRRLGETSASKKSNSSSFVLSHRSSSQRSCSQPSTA

Consider `O=c1c(O)c(-c2ccc(O)c(O)c2)oc2cc(O)cc(O)c12` [QUERCETIN DIHYDRATE], for which the IC50 – broadly, the concentration that gives 50% inhibition – against Procathepsin L is > 59.6 µM (not active); at Aspartyl aminopeptidase it was 0.385 µM (active); on Large T antigen, 16.1 µM (active). Also, the EC50 (as a rule, the midpoint of the concentration-response curve) on Oxytocin receptor was > 29.9 µM (not active). In [1], the AC50 (in general, the midpoint of the concentration-response curve, whichever way the signal moves) is 233 µM (active).
Turning to `O=C(NCCCn1ccnc1)C1CCCN(S(=O)(=O)c2cc(Cl)ccc2Cl)C1` (configuration not stated), in assay [2], the EC50 is 0.999 µM (active).
In the case of `CCSCCc1nnc(NC(=O)Nc2cccc(C(F)(F)F)c2)s1`, the AC50 in assay [3] is 7.84 µM (active); in the assay on A-375, 6.62 µM (active); in [4], 8.04 µM (active); in assay [5], 5.02 µM (active); in [6], 8.99 µM (active); in assay [7] it was 35.2 µM (active). The AC50 in [9] is 23.1 µM (active); in assay [11], 4.07 µM (active); at Paired box protein Pax-8, 7.31 µM (active); in [12], 27.4 µM (active); in assay [14], 5.2 µM (active); in assay [16] it was 5.05 µM (active). In addition, the AC50 in assay [18] is 5.97 µM (active); in assay [20], > 100 µM (inactive); with INS1, 3.91 µM (active); in [21] it was 3.56 µM (active). Moreover, the IC50 in the assay with HEK293 [8] is 2.68 µM (active); in the assay with HEK293 [10], 2.57 µM (active); in the assay with HEK293 [13] it was > 20 µM (inactive); in the assay on HEK293 [19] it was 9.13 µM (active). The EC50 with HEK293 [15] was 2.16 µM (active); in [17] it was 15 µM (active).
In the case of `OCC1(CCc2ccccc2)CCN(Cc2cccn2-c2cccnc2)CC1`, the EC50 in assay [22] was 0.149 µM (active); at Mu-type opioid receptor, 52.6 µM (inactive); in assay [23], > 92.5 µM (inactive); in assay [24], > 92.5 µM (inactive).
